Test results published in ChEMBL document CHEMBL5614438, “CETZOLE Analogs as Potent Ferroptosis Inducers and Their Target Identification Using Covalent/Affinity Probes” (J Med Chem, 2024).
Calls of active or inactive are those of the source. No cut-off for these calls is given here.

Tests used:
MDA-MB-231 = assay: Cytotoxicity against human MDA-MB-231 cells assessed as reduction in cell viability incubated for 3 days by methylene blue staining based spectrophotometric analysis; assay type: functional; details: MDA-MB-231, 72 h, time 3 day
NCI-H522 [1] = assay: Cytotoxicity against human NCI-H522 cells assessed as reduction in cell viability incubated for 3 days by methylene blue staining based spectrophotometric analysis; assay type: functional; details: NCI-H522, 72 h, time 3 day
HT-1080 [2] = assay: Cytotoxicity against human HT-1080 cells assessed as reduction in cell viability incubated for 3 days by methylene blue staining based spectrophotometric analysis; assay type: functional; details: HT-1080, 72 h, time 3 day
NCI-H522 [3] = assay: Cytotoxicity against human NCI-H522 cells overexpressing GFP-tagged SLC7A11 assessed as reduction in cell viability incubated for 3 days by methylene blue staining based spectrophotometric analysis; assay type: functional; details: NCI-H522, 72 h, time 3 day
U2OS = assay: Cytotoxicity against human U2OS cells assessed as reduction in cell viability incubated for 3 days by methylene blue staining based spectrophotometric analysis; assay type: functional; details: 72 h, time 3 day
NCI-H522 [4] = assay: Cytotoxicity against human NCI-H522 cells overexpressing GFP-tagged RV assessed as reduction in cell viability incubated for 3 days by methylene blue staining based spectrophotometric analysis; assay type: functional; details: NCI-H522, 72 h, time 3 day
HT-1080 [5] = assay: Cytotoxicity against human HT-1080 cells assessed as reduction in cell viability at 1 uM incubated for 3 days by methylene blue staining based spectrophotometric analysis; assay type: functional; details: time 3.0 day
NCI-H522 [6] = assay: Induction of ferroptosis in human NCI-H522 cells assessed as increase in intracellular lipid peroxidation accumulation at 4.08 uM incubated for 6 hrs by C11 BODIPY 581/591 staining based flow cytometry; assay type: functional, cell-based
NCI-H522 [7] = assay: Induction of ferroptosis in human NCI-H522 cells assessed as cell viability incubated for 3 days in presence of liproxstatin-1 by methylene blue staining based spectrophotometric analysis relative to control; assay type: functional; details: time 3 day
MEF [8] = assay: Cytotoxicity against mouse MEF cells assessed as reduction in cell viability at 1 uM incubated for 3 days by methylene blue staining based spectrophotometric analysis; assay type: toxicity; details: 72 h, time 3 day
NCI-H522 [9] = assay: Induction of cell death in human NCI-H522 cells at 10 uM incubated for 4 to 5 hrs by live cell imaging analysis relative to control; assay type: functional; details: time 4-5 hrs
WI-38 [10] = assay: Cytotoxicity against human WI-38 cells assessed as reduction in cell viability at 1 uM incubated for 3 days by methylene blue staining based spectrophotometric analysis; assay type: toxicity; details: wi-38, 72 h, time 3 day
NCI-H522 [11] = assay: Induction of cell death in human NCI-H522 cells at 10 uM incubated for 4 to 5 hrs by live cell imaging analysis; assay type: functional, cell-based; details: time 4-5 hrs
NCI-H522 [12] = assay: Cytotoxicity against human NCI-H522 cells assessed as reduction in cell viability at 1 uM incubated for 3 days by methylene blue staining based spectrophotometric analysis; assay type: functional; details: time 3.0 day
NCI-H522 [13] = assay: Induction of cell death in human NCI-H522 cells at 10 uM incubated for 3 to 4 hrs by live cell imaging analysis relative to control; assay type: functional; details: time 3-4 hrs
NCI-H522 [14] = assay: Induction of ferroptosis in human NCI-H522 cells assessed as reduction in cell viability at 3.3 uM incubated for 3 days in presence of liproxstatin-1 by methylene blue staining based spectrophotometric analysis; assay type: functional; details: time 3.0 day
MEF [15] = assay: Cytotoxicity against mouse MEF cells assessed as reduction in cell viability incubated for 3 days by methylene blue staining based spectrophotometric analysis; assay type: toxicity; details: 72 h, time 3 day
WI-38 [16] = assay: Cytotoxicity against human WI-38 cells assessed as reduction in cell viability incubated for 3 days by methylene blue staining based spectrophotometric analysis; assay type: toxicity; details: wi-38, 72 h, time 3 day

| Compound | CC50 (MDA-MB-231) | CC50 (NCI-H522 [1]) | CC50 (HT-1080 [2]) | CC50 (NCI-H522 [3]) | CC50 (U2OS) | CC50 (NCI-H522 [4]) | other results |
| --- | --- | --- | --- | --- | --- | --- | --- |
| CCN(CC)c1ccc2cc(C(=O)NC3CCC(c4csc(Br)n4)=C3C)c(=O)oc2c1 (centres undefined) | > 20000 nM | > 20000 nM | > 20000 nM |  |  |  |  |
| C#Cc1nc(C2=C(C)C(O)/C(=N/O)C2)cs1 (centres undefined) | 6570 nM | 4680 nM | 5770 nM | > 20000 nM | > 20000 nM | 5550 nM |  |
| C#Cc1nc(C2=C(C)C(OC(=O)C(C)(C)C)/C(=N\OC(=O)C(C)(C)C)C2)cs1 (centres undefined) | 440 nM | 411 nM | 33 nM | 387 nM | 3390 nM | 472 nM |  |
| C#CCO/N=C1\CC(c2csc(Br)n2)=C(C)C1O (centres undefined) | > 20000 nM | > 20000 nM | > 20000 nM |  |  |  |  |
| C#Cc1nc(C2=C(C)/C(=N/OCc3ccccc3)CC2)cs1 | 4170 nM | 1360 nM | 810 nM | 2410 nM | 19300 nM | 2540 nM | Activity (HT-1080 [5]): Active; Activity (NCI-H522 [6]): Active; Activity (NCI-H522 [7]): 85%; Activity (MEF [8]): Non-Toxic; Activity (NCI-H522 [9]): 50%; Activity (WI-38 [10]): Non-Toxic; Activity (NCI-H522 [11]): Active; Activity (NCI-H522 [12]): Active |
| CC1=C(c2csc(Br)n2)CCC1O (centres undefined) | > 20000 nM | > 20000 nM | > 20000 nM |  |  |  |  |
| C#Cc1nc(C2=C(C)C(OC(=O)c3ccccc3)/C(=N\OC(=O)c3ccccc3)C2)cs1 (centres undefined) | 540 nM | 550 nM | 80 nM | 840 nM | 220 nM | 580 nM |  |
| C#Cc1nc(C2=C(C)C(=O)/C(=N/OCC(=O)Nc3ccc4oc(=O)c(C)cc4c3)C2)cs1 | > 20000 nM | > 20000 nM | > 20000 nM |  |  |  |  |
| C#CCCC(=O)Nc1ccc(C(=O)c2ccc(NC(=O)CO/N=C3\CC(c4csc(Br)n4)=C(C)C3O)cc2)cc1 (centres undefined) | > 20000 nM | > 20000 nM | > 20000 nM |  |  |  |  |
| COC(=O)c1ccc([C@H]2c3[nH]c4ccccc4c3C[C@H](C(=O)OC)N2C(=O)CCl)cc1 | 220 nM | 1100 nM | 140 nM | 2840 nM | 2460 nM | 310 nM | Activity (HT-1080 [5]): Active; Activity (MEF [8]): Toxic; Activity (WI-38 [10]): Toxic; Activity (NCI-H522 [13]): 50%; Activity (NCI-H522 [14]): inactive; CC50 (MEF [15]): 40 nM; Activity (NCI-H522 [12]): Active; CC50 (WI-38 [16]): 50 nM |
| CC1=C(c2csc(Br)n2)C/C(=N\OCC(=O)Nc2ccc3oc(=O)c(C)cc3c2)C1=O | > 20000 nM | > 20000 nM | > 20000 nM |  |  |  |  |
